Measurements: patent US9527849B2, “Salt and polymorph of pyrazolopyrimidinone compound, and pharmaceutical composition containing the same, preparation method and use thereof” (TOPHARMAN SHANGHAI CO., LTD., priority 2011, dated 2016)
“Also recorded” adds a separate entry of the source. Structures can show the parent of a compound that is named as a salt. Where two headings read alike, the source gives them in different places. Values belong to the compound of their own block, whether it stands above or below them.

Columns and labels:
[1] = Hygroscopicity, moisture weight gain in desiccator; format: physicochemical; conditions: for Moisture weight gain (%): relative humidity 92.5%, 48 hours, room temperature
Experimental: The hygroscopicities of various salts of compound Z were studied. A certain amount of the sample was placed in a precisely-weighted glass weighing bottle with a stopper to accurately weight. Then the open glass weighing bottle was placed in a desiccator (the saturated potassium nitrate solution was placed at the lower part of the desiccator, the relative humidity was 92.5%) and stood for 48 hours at room temperature. And then the glass weighing bottle was covered with the stopper and weighted again. The absorbent weight can be calculated.

[2] = Comparison of appearance, characters and odor; format: physicochemical
Text: The basic compound Z and various salts of compound Z were selected to compare the appearance and characters.

[3] = Comparison of solubility in water and buffer solutions; format: physicochemical; conditions: for solubility (in words): in water and in other solvents; for solubility: thermodynamic from solid
Experimental: The basic compound Z and various salts of compound Z were selected to compare the solubility. Appropriate amount of sample was weighed, placed in glass tubes. The predetermined solvent was added gradually and the extension of clear of the solution was observed. The solvent included the follows: pure water (pH 6.2), hydrochloric acid solution (pH1.0), a standard potassium hydrogen phthalate buffer solution (pH 4.0), and a mixed phosphate buffer solution (pH 6.86).

[4] = Impact factor stability test (high temperature, high humidity, light exposure); format: physicochemical; conditions: for chemical stability (in words): high temperature, high humidity
Text: The basic compounds of compound Z and the maleate thereof were selected to compare the chemical stability through an impact factor test, and results were shown in Table 8: […]

[5] = test system: rats cavernous body pressure/arterial blood pressure (ICP/BP); test: Erectile dysfunction (ED) efficacy trial in vivo in rats, method of WO2007056955; conditions: Dose 10 mg/kg, after the administration
[6] = test system: cavernous pressure in rats; test: Cavernous pressure in rats induced by electric stimulus to the erectile nerve (ED); format: in vivo; conditions: rat, 2.50-5.00 mg/kg through duodenum; FIG. 19
Text: The effect of maleate of compound Z on the cavernous pressure variation in rats induced by the electric stimulus to the erectile nerve was studied according to the method described in the reference (International Journal of Impotence Research (2002) 14, 251-255).

PDE6 = test: In vitro activity against PDE isoenzyme; format: biochemical
PDE9 = PDE9 (Homo sapiens, UniProt O76083); test: In vitro activity against PDE isoenzyme; format: biochemical
PDE5 = PDE5 (Homo sapiens, UniProt O76074); test: In vitro activity against PDE isoenzyme; format: biochemical
[7] = test system: rats with pulmonary arterial hypertension; test: Pulmonary arterial hypertension (PAH) rats, single intravenous administration; format: in vivo; conditions: single intravenous administration of 1 mg/kg, FIG. 18
Text: (§1) The effects of maleate of compound Z on pulmonary artery pressure of pulmonary arterial hypertension rats were studied according to the method described in the reference (J Pharmacol Sci, 111, 235-243 (2009)).

PDE10 = PDE10 (Homo sapiens, UniProt Q9Y233); test: In vitro activity against PDE isoenzyme; format: biochemical
PDE4 = test: In vitro activity against PDE isoenzyme; format: biochemical; conditions: for IC50: PDE4
PDE8 = test: In vitro activity against PDE isoenzyme; format: biochemical; conditions: for IC50: PDE8
PDE2 = PDE2 (Homo sapiens, UniProt O00408); test: In vitro activity against PDE isoenzyme; format: biochemical
[8] = test system: rats with pulmonary arterial hypertension; test: Pulmonary arterial hypertension (PAH) rats, chronic oral administration; format: in vivo; conditions: each dose group, FIG. 17
Text: as §1

PDE11 = PDE11 (Homo sapiens, UniProt Q9HCR9); test: In vitro activity against PDE isoenzyme; format: biochemical
PDE3 = test: In vitro activity against PDE isoenzyme; format: biochemical
PDE7 = test: In vitro activity against PDE isoenzyme; format: biochemical; conditions: for IC50: PDE7
PDE1 = test: In vitro activity against PDE isoenzyme; format: biochemical; conditions: for IC50: PDE1
[9] = Comparison of salts and crystalline forms (crystal water, static, stability, component, crystalline form); format: physicochemical
[10] = High temperature, 5 days, listed as Compound Z (basic)
[11] = High temperature, 10 days, listed as Compound Z (basic)
[12] = Light exposure, 5 days, listed as Compound Z (basic)
[13] = Light exposure, 10 days, listed as Compound Z (basic)

PDE10, sequence (Q9Y233 whole entry): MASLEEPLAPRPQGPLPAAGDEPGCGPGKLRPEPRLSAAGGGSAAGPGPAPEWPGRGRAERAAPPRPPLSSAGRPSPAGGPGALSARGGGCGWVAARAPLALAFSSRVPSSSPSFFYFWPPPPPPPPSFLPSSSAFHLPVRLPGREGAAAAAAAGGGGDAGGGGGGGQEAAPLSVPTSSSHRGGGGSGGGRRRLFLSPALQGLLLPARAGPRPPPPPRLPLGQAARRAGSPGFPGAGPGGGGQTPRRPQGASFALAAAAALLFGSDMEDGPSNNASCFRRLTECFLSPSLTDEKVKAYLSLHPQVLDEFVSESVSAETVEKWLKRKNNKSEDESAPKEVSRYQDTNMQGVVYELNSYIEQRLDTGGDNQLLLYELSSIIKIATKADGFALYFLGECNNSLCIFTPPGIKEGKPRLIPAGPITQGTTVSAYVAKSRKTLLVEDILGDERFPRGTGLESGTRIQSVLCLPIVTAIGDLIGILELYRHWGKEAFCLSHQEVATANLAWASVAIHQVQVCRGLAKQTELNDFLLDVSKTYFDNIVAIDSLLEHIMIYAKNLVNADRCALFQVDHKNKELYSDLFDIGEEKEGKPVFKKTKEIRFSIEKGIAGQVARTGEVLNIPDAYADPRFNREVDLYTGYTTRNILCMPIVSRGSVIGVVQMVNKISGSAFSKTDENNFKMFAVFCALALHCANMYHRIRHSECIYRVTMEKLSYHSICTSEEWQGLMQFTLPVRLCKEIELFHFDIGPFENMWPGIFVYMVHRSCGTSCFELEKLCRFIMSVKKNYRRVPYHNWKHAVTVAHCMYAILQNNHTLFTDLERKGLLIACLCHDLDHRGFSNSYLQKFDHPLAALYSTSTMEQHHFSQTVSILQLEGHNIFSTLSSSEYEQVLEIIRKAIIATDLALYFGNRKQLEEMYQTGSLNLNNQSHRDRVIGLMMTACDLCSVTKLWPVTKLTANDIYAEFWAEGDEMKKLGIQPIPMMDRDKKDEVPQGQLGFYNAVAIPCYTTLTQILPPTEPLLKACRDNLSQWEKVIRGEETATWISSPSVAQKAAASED
PDE9, sequence (O76083 whole entry): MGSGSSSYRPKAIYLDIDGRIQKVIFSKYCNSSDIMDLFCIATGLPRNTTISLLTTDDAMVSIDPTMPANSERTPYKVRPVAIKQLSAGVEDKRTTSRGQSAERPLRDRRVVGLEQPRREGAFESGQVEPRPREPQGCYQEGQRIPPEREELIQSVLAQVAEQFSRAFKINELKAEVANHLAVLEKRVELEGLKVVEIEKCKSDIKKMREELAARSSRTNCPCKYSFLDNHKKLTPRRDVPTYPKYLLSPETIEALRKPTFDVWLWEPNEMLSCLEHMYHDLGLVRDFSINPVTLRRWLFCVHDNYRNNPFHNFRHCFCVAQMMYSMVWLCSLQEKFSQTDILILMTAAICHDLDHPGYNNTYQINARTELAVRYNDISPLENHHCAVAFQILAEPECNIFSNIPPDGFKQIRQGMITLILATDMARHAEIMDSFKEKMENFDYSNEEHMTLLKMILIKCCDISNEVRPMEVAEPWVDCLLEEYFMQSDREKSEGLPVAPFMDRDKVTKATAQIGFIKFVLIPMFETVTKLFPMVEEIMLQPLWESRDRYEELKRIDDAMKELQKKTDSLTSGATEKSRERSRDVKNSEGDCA
PDE11, sequence (Q9HCR9 whole entry): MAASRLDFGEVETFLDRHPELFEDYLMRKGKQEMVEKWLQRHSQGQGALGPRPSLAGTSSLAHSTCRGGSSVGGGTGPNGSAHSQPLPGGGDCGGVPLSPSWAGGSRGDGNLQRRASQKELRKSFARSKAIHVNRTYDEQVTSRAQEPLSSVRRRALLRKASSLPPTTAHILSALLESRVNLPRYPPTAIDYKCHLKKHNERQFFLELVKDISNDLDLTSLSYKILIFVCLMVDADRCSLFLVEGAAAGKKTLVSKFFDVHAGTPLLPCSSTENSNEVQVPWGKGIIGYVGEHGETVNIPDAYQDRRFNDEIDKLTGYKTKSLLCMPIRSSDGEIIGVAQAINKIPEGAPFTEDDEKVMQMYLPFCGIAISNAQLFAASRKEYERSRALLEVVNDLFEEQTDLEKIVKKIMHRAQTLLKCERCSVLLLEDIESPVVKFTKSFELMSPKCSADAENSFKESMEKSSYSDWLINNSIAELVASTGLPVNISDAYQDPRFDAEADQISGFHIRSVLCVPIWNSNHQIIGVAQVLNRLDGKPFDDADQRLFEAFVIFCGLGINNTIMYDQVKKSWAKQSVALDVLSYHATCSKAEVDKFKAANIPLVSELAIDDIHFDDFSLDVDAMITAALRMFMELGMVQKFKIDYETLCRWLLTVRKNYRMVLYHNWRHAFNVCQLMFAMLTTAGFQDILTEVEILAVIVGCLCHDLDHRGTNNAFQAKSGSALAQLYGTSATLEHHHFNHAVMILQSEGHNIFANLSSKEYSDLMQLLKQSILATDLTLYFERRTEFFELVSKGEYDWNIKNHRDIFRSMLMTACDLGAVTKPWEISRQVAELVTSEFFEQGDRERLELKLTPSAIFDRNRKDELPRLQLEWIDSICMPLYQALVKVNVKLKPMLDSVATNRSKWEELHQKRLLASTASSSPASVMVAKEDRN
PDE2, sequence (O00408 whole entry): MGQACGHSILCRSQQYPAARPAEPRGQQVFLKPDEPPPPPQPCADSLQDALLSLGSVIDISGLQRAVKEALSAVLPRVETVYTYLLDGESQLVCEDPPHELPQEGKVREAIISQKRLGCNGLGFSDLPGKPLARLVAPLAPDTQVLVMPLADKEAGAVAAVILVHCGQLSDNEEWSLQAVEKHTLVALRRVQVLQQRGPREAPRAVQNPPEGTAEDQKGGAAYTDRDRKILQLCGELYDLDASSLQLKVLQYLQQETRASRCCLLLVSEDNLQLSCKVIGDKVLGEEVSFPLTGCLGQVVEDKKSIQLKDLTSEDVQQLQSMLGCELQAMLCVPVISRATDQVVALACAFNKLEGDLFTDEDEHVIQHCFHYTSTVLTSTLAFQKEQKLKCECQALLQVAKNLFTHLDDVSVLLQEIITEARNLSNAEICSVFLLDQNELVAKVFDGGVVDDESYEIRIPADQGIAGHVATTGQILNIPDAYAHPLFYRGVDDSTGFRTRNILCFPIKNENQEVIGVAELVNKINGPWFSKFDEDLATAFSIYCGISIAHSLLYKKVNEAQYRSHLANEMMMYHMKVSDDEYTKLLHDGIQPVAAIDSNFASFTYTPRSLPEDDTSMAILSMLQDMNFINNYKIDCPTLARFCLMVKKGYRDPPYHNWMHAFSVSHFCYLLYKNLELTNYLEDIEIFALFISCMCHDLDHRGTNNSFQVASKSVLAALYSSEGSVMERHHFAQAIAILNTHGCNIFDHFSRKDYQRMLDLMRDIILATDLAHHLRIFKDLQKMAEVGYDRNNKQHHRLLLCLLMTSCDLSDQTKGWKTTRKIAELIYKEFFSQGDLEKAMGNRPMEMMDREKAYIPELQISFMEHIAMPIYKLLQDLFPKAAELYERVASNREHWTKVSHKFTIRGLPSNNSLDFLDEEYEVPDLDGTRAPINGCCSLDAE

Compound: 1-methyl-5-{2-propoxy-5-[[1-methyl-1-(2-pyrrolidin-1-yl)ethyl]aminosulfonyl]phenyl}-3-propyl-1,6-dihydro-7H-pyrazolo[4,3-D]pyrimidin-7-one maleate
hygroscopicity (in words) [1]: low moisture absorption; also recorded: no hygroscopicity

melting point: 162.5 to 163.3 °C
Compound: CCCOc1ccc(S(=O)(=O)N(C)CCN2CCCC2)cc1-c1nc2c(CCC)nn(C)c2c(=O)[nH]1 (as salt: maleate) [Maleate of compound Z, 1-methyl-5-{2-propoxy-5-[[1-methyl-1-(2-pyrrolidin-1-yl)ethyl]aminosulfonyl]phenyl}-3-propyl-1,6-dihydro-7H-pyrazolo[4,3-D]pyrimidin-7-one maleate]

Characters [2]: white solid
Odor [2]: pungent odor
Odor ([2]; listed as compound Z): pungent odor
Moisture weight gain (%) ([1]; listed as Basic compound Z): 0.39%
Solubility, Pure water (pH 6.1) ([3]; Pure water (pH 6.1), listed as Compound Z (basic)): insoluble
Solubility, hydrochloric acid solution (pH 1.0) ([3]; hydrochloric acid solution (pH 1.0), listed as Compound Z (basic)): >21 mg/ml
solubility (in words) [3]: poor water-solubility
solubility (in words) ([3]; listed as basic compound Z): significantly less
Solubility, buffer solution (pH 6.86) ([3]; mixed phosphate buffer solution (pH 6.86), listed as Compound Z (basic)): insoluble
solubility ([3]; standard potassium hydrogen phthalate buffer solution, pH 4, aqueous buffer, potassium hydrogen phthalate buffer solution (pH 4.0), read-out: Solubility, buffer solution (pH 4.0)): > 5.88 mg/mL
trait ([4]; 0 day): white
purity ([4]; 0 day, listed as Compound Z (basic)): 98.25%
trait ([4]; High humidity, 5 days): white
purity ([4]; High humidity, 5 days, listed as Compound Z (basic)): 98.02%
trait ([4]; High humidity, 10 days): white
purity ([4]; High humidity, 10 days, listed as Compound Z (basic)): 98.20%
purity [4, 10]: 94.70%
trait [4, 10]: pale yellow
purity [4, 11]: 94.55%
trait [4, 11]: yellow
purity [4, 12]: 72.49%
trait [4, 12]: pale yellow
purity [4, 13]: 55.88%
trait [4, 13]: pale yellow
chemical stability (in words) ([4]; light exposure): poor chemical stability
chemical stability (in words) ([4]; light exposure, listed as basic compound Z): poor stability
degradation ([4]; light exposure, after 10 days): ~50%
Compound: CCCOc1ccc(S(=O)(=O)N(C)CCN2CCCC2)cc1-c1nc2c(CCC)nn(C)c2c(=O)[nH]1 [Compound Z, 1-methyl-5-{2-propoxy-5-[[1-methyl-1-(2-pyrrolidin-1-yl)ethyl]aminosulfonyl]phenyl}-3-propyl-1,6-dihydro-7H-pyrazolo[4,3-d]pyrimidin-7-one]
ICP/BP increasing rate (%) ([5]; listed as basic compound Z, 10 mg/kg): 72.22 ± 19.28 %

Characters [2]: white solid
Odor [2]: no bad smell
IC50 (PDE6; PDE6): 0.0452 µM
IC50(PDEs)/IC50(PDE5) (PDE6; PDE6 vs PDE5): 20
IC50 (PDE9; PDE9): > 100 µM
IC50(PDEs)/IC50(PDE5) (PDE9; PDE9 vs PDE5): >10000
hygroscopicity (in words) [1]: minimal hygroscopicity
Moisture weight gain (%) [1]: 1.56%
IC50 (PDE5; PDE5): 0.00228 µM
activity and selectivity for PDE5 enzyme (in words) (PDE5; in vitro enzyme inhibitors screening test): high activity and selectivity
IC50 (PDE10; PDE10): > 100 µM
IC50(PDEs)/IC50(PDE5) (PDE10; PDE10 vs PDE5): >10000
IC50 (PDE4): 4.07 µM
IC50(PDEs)/IC50(PDE5) (PDE4; PDE4 vs PDE5): 1785
IC50 (PDE8): > 100 µM
IC50(PDEs)/IC50(PDE5) (PDE8; PDE8 vs PDE5): >10000
IC50 (PDE2; PDE2): > 100 µM
IC50(PDEs)/IC50(PDE5) (PDE2; PDE2 vs PDE5): >10000
IC50 (PDE11; PDE11): 6.09 µM
IC50(PDEs)/IC50(PDE5) (PDE11; PDE11 vs PDE5): 2671
IC50 (PDE3; PDE3): 22 µM
IC50(PDEs)/IC50(PDE5) (PDE3; PDE3 vs PDE5): 9649
solubility ([3]; hydrochloric acid solution, pH 1, simulated gastric fluid, hydrochloric acid solution (pH 1.0), read-out: Solubility, hydrochloric acid solution (pH 1.0)): > 42 mg/mL
solubility ([3]; mixed phosphate buffer solution, pH 6.86, aqueous buffer, mixed phosphate buffer solution (pH 6.86), read-out: Solubility, buffer solution (pH 6.86)): > 19.8 mg/mL
solubility ([3]; pure water, pH 6.1, water, Pure water (pH 6.1), read-out: Solubility, Pure water (pH 6.1)): > 11 mg/mL
purity ([4]; 0 day): 99.79%
trait ([4]; 0 day): white
purity ([4]; High humidity, 5 days): 99.79%
trait ([4]; High humidity, 5 days): white
purity ([4]; High humidity, 10 days): 99.80%
trait ([4]; High humidity, 10 days): white
purity ([4]; High temperature, 5 days): 99.69%
trait ([4]; High temperature, 5 days): white
purity ([4]; High temperature, 10 days): 99.76%
trait ([4]; High temperature, 10 days): white
purity ([4]; Light exposure, 5 days): 99.65%
trait ([4]; Light exposure, 5 days): white
purity ([4]; Light exposure, 10 days): 99.68%
trait ([4]; Light exposure, 10 days): white
chemical stability (in words) ([4]; light exposure): stable
IC50 (PDE7): > 100 µM
IC50(PDEs)/IC50(PDE5) (PDE7; PDE7 vs PDE5): >10000
IC50 (PDE1): 0.462 µM
IC50(PDEs)/IC50(PDE5) (PDE1; PDE1 vs PDE5): 203
component [9]: constant
crystal water [9]: no
stability [9]: stable
static [9]: no
Compound: CCCOc1ccc(S(=O)(=O)N(C)CCN2CCCC2)cc1-c1nc2c(CCC)nn(C)c2c(=O)[nH]1 [Maleate of compound Z, 1-methyl-5-{2-propoxy-5-[[1-methyl-1-(2-pyrrolidin-1-yl)ethyl]aminosulfonyl]phenyl}-3-propyl-1,6-dihydro-7H-pyrazolo[4,3-D]pyrimidin-7-one maleate]
ICP value (cavernous peak pressure) [6]: significantly increased
ICP/BP values (cavernous peak pressure/carotid arterial blood pressure) [6]: significantly increased
mean aortic pressure [7]: significantly reduce
mean pulmonary artery pressure [7]: significantly reduce
selectivity for the reduction of pulmonary artery pressure [7]: strong selectivity
pulmonary arterial pressure compared with the model group [8]: significantly reduce
pulmonary arterial pressure compared with the positive control group [8]: no significant difference
ICP/BP increasing rate (%) ([5]; 10 mg/kg): 80.99 ± 17.01 %

Compound: CCCc1nn(C)c2c(=O)[nH]c(-c3cc(S(=O)(=O)N4CCN(C)CC4)ccc3OCC)nc12 [Sildenafil, reference compound]
IC50 (PDE4): 5.83 µM
IC50 (PDE8): > 100 µM
IC50 (PDE7): 46.9 µM
IC50 (PDE1): 0.46 µM
ICP/BP increasing rate (%) [5]: 73.10 ± 36.24 %
